Laboratory results taken from ChEMBL document CHEMBL1909046, “DrugMatrix in vitro pharmacology data”.

Legend:
Histamine H2 receptor = Histamine H2 receptor (Homo sapiens, UniProt P25021); assay type: cell membranes, CHO-K1, Membrane; settings: cho-k1; further: in other assays of this panel Not Active means under 50% inhibition at 10 µM
Estrogen receptor = target: T1, Estrogen receptor (Homo sapiens, UniProt P03372); settings: sf9; further: in other assays of this panel Not Active means under 50% inhibition at 10 µM
T1 sequence (P03372 whole entry): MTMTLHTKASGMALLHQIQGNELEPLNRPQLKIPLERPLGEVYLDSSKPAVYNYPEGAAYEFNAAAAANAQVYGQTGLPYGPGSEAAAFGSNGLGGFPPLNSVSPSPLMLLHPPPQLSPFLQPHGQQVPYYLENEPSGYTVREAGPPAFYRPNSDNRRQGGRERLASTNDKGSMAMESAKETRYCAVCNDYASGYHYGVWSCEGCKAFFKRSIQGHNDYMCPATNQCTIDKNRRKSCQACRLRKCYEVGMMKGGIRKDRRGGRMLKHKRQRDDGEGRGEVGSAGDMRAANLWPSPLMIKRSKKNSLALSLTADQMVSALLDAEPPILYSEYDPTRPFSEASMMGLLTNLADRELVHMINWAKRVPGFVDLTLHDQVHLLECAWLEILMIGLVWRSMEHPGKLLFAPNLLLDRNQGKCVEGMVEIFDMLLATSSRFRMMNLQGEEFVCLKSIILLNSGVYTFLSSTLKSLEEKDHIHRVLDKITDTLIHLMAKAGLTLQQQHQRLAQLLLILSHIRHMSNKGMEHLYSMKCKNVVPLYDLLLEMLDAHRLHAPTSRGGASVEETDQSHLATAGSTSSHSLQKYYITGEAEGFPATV

[1] = DRUGMATRIX: Sodium/nucleoside co-transporter radioligand binding (ligand: nitrobenzylthioinosine); assay type: cell membranes, Cavia porcellus, Dunkin-Hartley, Cerebral cortex, Membrane; settings: Not Active = under 50% inhibition at 10 µM
Cytochrome P450 1A2 = target: T2, Cytochrome P450 1A2 (Homo sapiens, UniProt P05177); settings: bti-tn-5b1-4; further: in other assays of this panel Not Active means under 50% inhibition at 10 µM
T2 sequence (P05177 whole entry): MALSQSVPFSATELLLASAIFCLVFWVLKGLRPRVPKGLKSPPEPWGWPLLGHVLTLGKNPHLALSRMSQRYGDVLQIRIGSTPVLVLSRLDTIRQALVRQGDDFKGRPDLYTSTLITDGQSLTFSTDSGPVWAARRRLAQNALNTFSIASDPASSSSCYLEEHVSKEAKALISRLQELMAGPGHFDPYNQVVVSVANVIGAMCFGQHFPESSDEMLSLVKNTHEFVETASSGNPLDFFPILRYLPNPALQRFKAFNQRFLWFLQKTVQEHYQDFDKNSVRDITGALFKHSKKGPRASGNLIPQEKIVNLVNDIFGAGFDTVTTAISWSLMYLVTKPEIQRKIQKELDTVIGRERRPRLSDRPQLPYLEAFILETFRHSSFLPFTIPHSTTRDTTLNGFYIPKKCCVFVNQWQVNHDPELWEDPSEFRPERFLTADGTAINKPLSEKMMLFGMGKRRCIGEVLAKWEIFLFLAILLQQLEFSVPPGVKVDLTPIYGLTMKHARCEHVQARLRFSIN

[2] = target: T3, Vasoactive intestinal polypeptide receptor 1 (Homo sapiens, UniProt P32241); assay type: cell membranes, Membrane; settings: ht-29; further: in other assays of this panel Not Active means under 50% inhibition at 10 µM
T3 sequence (P32241 whole entry): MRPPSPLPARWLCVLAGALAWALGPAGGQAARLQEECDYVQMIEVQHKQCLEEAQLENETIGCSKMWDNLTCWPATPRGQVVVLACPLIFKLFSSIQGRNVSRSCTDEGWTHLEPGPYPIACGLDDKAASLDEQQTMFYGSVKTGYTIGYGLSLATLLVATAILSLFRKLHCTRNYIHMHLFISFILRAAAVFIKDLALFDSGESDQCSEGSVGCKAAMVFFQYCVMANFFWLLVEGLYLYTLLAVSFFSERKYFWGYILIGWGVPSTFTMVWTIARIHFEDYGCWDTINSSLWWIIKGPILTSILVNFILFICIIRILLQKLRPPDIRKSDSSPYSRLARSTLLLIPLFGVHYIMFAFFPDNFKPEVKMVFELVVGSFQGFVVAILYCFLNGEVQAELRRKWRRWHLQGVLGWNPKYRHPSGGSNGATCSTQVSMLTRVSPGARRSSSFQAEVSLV

[3] = target: Tyrosine-protein kinase Fyn (Homo sapiens, UniProt P06241); test: biochemical; assay type: cell-based, Insect cells; settings: insect cells
Sequence of Tyrosine-protein kinase Fyn (P06241 whole entry): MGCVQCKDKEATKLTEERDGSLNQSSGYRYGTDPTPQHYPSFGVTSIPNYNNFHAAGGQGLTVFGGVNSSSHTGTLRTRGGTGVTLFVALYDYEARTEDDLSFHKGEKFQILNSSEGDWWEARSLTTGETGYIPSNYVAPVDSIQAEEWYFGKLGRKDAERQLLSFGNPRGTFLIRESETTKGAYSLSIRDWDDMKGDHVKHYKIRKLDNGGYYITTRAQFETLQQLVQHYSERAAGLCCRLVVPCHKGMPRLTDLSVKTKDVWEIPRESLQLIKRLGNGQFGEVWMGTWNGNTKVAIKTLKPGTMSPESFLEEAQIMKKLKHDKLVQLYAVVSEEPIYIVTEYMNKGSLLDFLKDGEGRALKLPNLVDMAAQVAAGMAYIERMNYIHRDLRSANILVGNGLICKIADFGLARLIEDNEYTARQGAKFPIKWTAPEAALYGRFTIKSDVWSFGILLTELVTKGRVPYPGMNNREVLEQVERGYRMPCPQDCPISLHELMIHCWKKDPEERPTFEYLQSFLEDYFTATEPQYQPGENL

[4] = DRUGMATRIX: Potassium Channel [KATP] radioligand binding (ligand: [3H] Glyburide); assay type: cell membranes, Membrane; settings: hit-t15; Not Active = under 50% inhibition at 10 µM

Sequence of Histamine H2 receptor (P25021 whole entry): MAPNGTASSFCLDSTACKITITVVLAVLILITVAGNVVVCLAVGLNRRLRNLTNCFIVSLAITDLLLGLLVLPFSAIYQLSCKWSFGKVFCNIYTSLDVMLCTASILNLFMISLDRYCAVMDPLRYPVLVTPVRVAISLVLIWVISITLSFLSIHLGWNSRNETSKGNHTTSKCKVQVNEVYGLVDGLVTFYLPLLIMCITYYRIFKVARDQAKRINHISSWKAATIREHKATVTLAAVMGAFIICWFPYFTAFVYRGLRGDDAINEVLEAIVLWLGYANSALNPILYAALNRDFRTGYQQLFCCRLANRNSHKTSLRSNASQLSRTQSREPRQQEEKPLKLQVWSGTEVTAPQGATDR

COc1ccc(C[C@H](N)C(=O)N[C@H]2[C@@H](O)[C@H](n3cnc4c(N(C)C)ncnc43)O[C@@H]2CO)cc1 [PUROMYCIN]
Not Active: IC50 (Histamine H2 receptor) | IC50 (Estrogen receptor) | IC50 [1] | Ki [1] | IC50 (Cytochrome P450 1A2) | Ki (Cytochrome P450 1A2) | IC50 [2] | IC50 [3] | IC50 [4] | Ki [4]

O=C(O)c1ccccc1 [BENZOIC ACID]
Not Active: IC50 (Histamine H2 receptor) | IC50 (Estrogen receptor) | IC50 [1] | Ki [1] | IC50 (Cytochrome P450 1A2) | Ki (Cytochrome P450 1A2) | IC50 [2] | IC50 [3] | IC50 [4] | Ki [4]

C[C@H](C(=O)O)c1ccc2oc(-c3ccc(F)cc3)nc2c1 [FLUNOXAPROFEN]
Not Active: IC50 (Histamine H2 receptor) | IC50 (Estrogen receptor) | IC50 [1] | Ki [1] | IC50 (Cytochrome P450 1A2) | Ki (Cytochrome P450 1A2) | IC50 [2] | IC50 [3] | IC50 [4] | Ki [4]

C[C@@H]1[C@H](O)[C@@H](C)/C=C/C=C/C=C/C=C/C=C/C=C/C=C/[C@H](O[C@@H]2O[C@H](C)[C@@H](O)[C@H](N)[C@@H]2O)C[C@@H]2O[C@](O)(C[C@@H](O)C[C@@H](O)[C@H](O)CC[C@@H](O)C[C@@H](O)CC(=O)O[C@H]1C)C[C@H](O)[C@H]2C(=O)O [AMPHOTERICIN B]
Not Active: IC50 (Histamine H2 receptor) | IC50 (Estrogen receptor) | IC50 [1] | Ki [1] | IC50 (Cytochrome P450 1A2) | Ki (Cytochrome P450 1A2) | IC50 [2] | IC50 [3] | IC50 [4] | Ki [4]

COc1cc(/C=C/C(=O)O)ccc1O [FERULATE]
Not Active: IC50 (Histamine H2 receptor) | IC50 (Estrogen receptor) | IC50 [1] | Ki [1] | IC50 (Cytochrome P450 1A2) | Ki (Cytochrome P450 1A2) | IC50 [2] | IC50 [3] | IC50 [4] | Ki [4]

CNC[C@H](O)c1ccc(O)c(O)c1 [EPINEPHRINE]
Not Active: IC50 (Histamine H2 receptor) | IC50 (Estrogen receptor) | IC50 [1] | Ki [1] | IC50 (Cytochrome P450 1A2) | Ki (Cytochrome P450 1A2) | IC50 [2] | IC50 [3] | IC50 [4] | Ki [4]

CCN1CCN(C(=O)N[C@@H](C(=O)N[C@@H]2C(=O)N3[C@@H]2SC(C)(C)[C@@H]3C(=O)O)c2ccccc2)C(=O)C1=O [PIPERACILLIN]
Not Active: IC50 (Histamine H2 receptor) | IC50 (Estrogen receptor) | IC50 [1] | Ki [1] | IC50 (Cytochrome P450 1A2) | Ki (Cytochrome P450 1A2) | IC50 [2] | IC50 [3] | IC50 [4] | Ki [4]

C=CCN1CC[C@]23c4c5ccc(O)c4O[C@H]2/C(=N/N=C2\CC[C@@]4(O)[C@H]6Cc7ccc(O)c8c7[C@@]4(CCN6CC=C)[C@H]2O8)CC[C@@]3(O)[C@H]1C5 [NALOXONAZINE]
Not Active: IC50 (Histamine H2 receptor) | IC50 (Estrogen receptor) | IC50 [1] | Ki [1] | IC50 (Cytochrome P450 1A2) | Ki (Cytochrome P450 1A2) | IC50 [2] | IC50 [3] | IC50 [4] | Ki [4]

Cl.NC[C@H]1CC[C@H](C(=O)Oc2ccc(CCC(=O)O)cc2)CC1 [CETRAXATE HYDROCHLORIDE]
Not Active: IC50 (Histamine H2 receptor) | IC50 (Estrogen receptor) | IC50 [1] | Ki [1] | IC50 (Cytochrome P450 1A2) | Ki (Cytochrome P450 1A2) | IC50 [2] | IC50 [3] | IC50 [4] | Ki [4]

CN(CCOc1ccc(C[C@H](Nc2ccccc2C(=O)c2ccccc2)C(=O)O)cc1)c1ccccn1
Not Active: IC50 (Histamine H2 receptor) | IC50 (Estrogen receptor) | IC50 [1] | Ki [1] | IC50 (Cytochrome P450 1A2) | Ki (Cytochrome P450 1A2) | IC50 [2] | IC50 [3] | IC50 [4] | Ki [4]

Nc1nc(F)nc2c1ncn2[C@@H]1O[C@H](CO)[C@@H](O)[C@@H]1O [FLUDARABINE]
Not Active: IC50 (Histamine H2 receptor) | IC50 (Estrogen receptor) | IC50 [1] | Ki [1] | IC50 (Cytochrome P450 1A2) | Ki (Cytochrome P450 1A2) | IC50 [2] | IC50 [3] | IC50 [4] | Ki [4]

OC[C@H]1OC2C3[C@@H](CO)OC(O[C@H]4[C@H](O)[C@@H](O)[C@@H](O[C@H]5[C@H](O)[C@@H](O)[C@@H](O[C@H]6[C@H](O)[C@@H](O)[C@@H](O[C@H]7[C@H](O)[C@@H](O)[C@@H](O[C@H]8[C@H](O)[C@@H](O)[C@@H](O[C@H]9[C@H](O)[C@@H](O)C(OC1[C@H](O)[C@H]2O)O[C@@H]9CO)O[C@@H]8CO)O[C@@H]7CO)O[C@@H]6CO)O[C@@H]5CO)O[C@@H]4CO)[C@H](O)[C@H]3O
Not Active: IC50 (Histamine H2 receptor) | IC50 (Estrogen receptor) | IC50 [1] | Ki [1] | IC50 (Cytochrome P450 1A2) | Ki (Cytochrome P450 1A2) | IC50 [2] | IC50 [3] | IC50 [4] | Ki [4]

O=C(Nc1ccc(Cl)c(Cl)c1)c1cc(Cl)cc(Cl)c1O [3,3',4',5-TETRACHLOROSALICYLANILIDE]
Not Active: IC50 (Histamine H2 receptor) | IC50 (Estrogen receptor) | IC50 [1] | Ki [1] | IC50 (Cytochrome P450 1A2) | Ki (Cytochrome P450 1A2) | IC50 [2] | IC50 [3] | IC50 [4] | Ki [4]

CC1(COc2ccc(CC3SC(=O)NC3=O)cc2)CCCCC1 (stereo not given) [CIGLITAZONE]
Not Active: IC50 (Histamine H2 receptor) | IC50 (Estrogen receptor) | IC50 [1] | Ki [1] | IC50 (Cytochrome P450 1A2) | Ki (Cytochrome P450 1A2) | IC50 [2] | IC50 [3] | IC50 [4] | Ki [4]

COC(=O)C[C@](O)(CCC(C)(C)O)C(=O)O[C@@H]1C(OC)=C[C@]23CCCN2CCc2cc4c(cc2[C@H]13)OCO4 [HARRINGTONINE]
Not Active: IC50 (Histamine H2 receptor) | IC50 (Estrogen receptor) | IC50 [1] | Ki [1] | IC50 (Cytochrome P450 1A2) | Ki (Cytochrome P450 1A2) | IC50 [2] | IC50 [3] | IC50 [4] | Ki [4]

O=c1[nH]cnc2c1ncn2[C@H]1CC[C@@H](CO)O1 [DIDANOSINE]
Not Active: IC50 (Histamine H2 receptor) | IC50 (Estrogen receptor) | IC50 [1] | Ki [1] | IC50 (Cytochrome P450 1A2) | Ki (Cytochrome P450 1A2) | IC50 [2] | IC50 [3] | IC50 [4] | Ki [4]

O=C(O)CO [GLYCOLIC ACID]
Not Active: IC50 (Histamine H2 receptor) | IC50 (Estrogen receptor) | IC50 [1] | Ki [1] | IC50 (Cytochrome P450 1A2) | Ki (Cytochrome P450 1A2) | IC50 [2] | IC50 [3] | IC50 [4] | Ki [4]

CC(C)Cc1ccc([C@H](C)C(=O)O)cc1 [DEXIBUPROFEN]
Not Active: IC50 (Histamine H2 receptor) | IC50 (Estrogen receptor) | IC50 [1] | Ki [1] | IC50 (Cytochrome P450 1A2) | Ki (Cytochrome P450 1A2) | IC50 [2] | IC50 [3] | IC50 [4] | Ki [4]

O=C1c2ccccc2C(=O)C1c1ccccc1 [PHENINDIONE]
Not Active: IC50 (Histamine H2 receptor) | IC50 (Estrogen receptor) | IC50 [1] | Ki [1] | IC50 (Cytochrome P450 1A2) | Ki (Cytochrome P450 1A2) | IC50 [2] | IC50 [3] | IC50 [4] | Ki [4]
